The text below walks through data of patent publication US9271994B2, “Compositions and methods related to calcitriol” (VDF Futureceuticals, Inc., priority 2009, dated 2016).

What all share (format): in vivo
One data set has as its system blood calcitriol. Description: Blood/serum calcitriol after single oral dose in human volunteers (radioimmuno assay). On the procedure:
(§1) In a typical example, five subjects were administered a single dosage of 552 mg calcium fructoborate upon informed consent, and blood was drawn immediately prior to administration and after 30, 60, 90, and 120 minutes. Calcitriol was measured using a standard radioimmuno assay from a commercial lab starting from 4 ml whole blood (numerous alternative methods are also deemed suitable, including those described in U.S. Pat. Nos. 4,585,741, 5,202,266, and 6,455,714). From each sample and for each time point, concentrations of calcidiol and calcitriol in serum were measured and the data are shown in FIGS. 1A to 1D. FIG. 1A depicts the effect of oral administration of calcium fructoborate on blood calcitriol 30 minutes after oral administration, FIG. 1B depicts the effect of oral administration of calcium fructoborate on blood calcitriol 60 minutes after oral administration, and FIG. 1C depicts the effect of oral administration of calcium fructoborate on blood calcitriol 90 minutes after oral administration. FIG. 1D depicts the effect of oral administration of calcium fructoborate on blood calcitriol 90-120 minutes after oral administration.
FIGS. 2A and 2B depict a graphic illustration of the results from this study where the biphasic mode of modulation of calcitriol is clearly seen between times 0-90 minutes (decrease) and 90-120 minutes (increase). In most cases, it is expected that the so increased calcitriol level will drop back to starting levels within 6 hours or less, and more typically within 4 hours, or less (data not shown). FIG. 3 depicts another graphic representation in which the exclusive modulation of calcitriol versus calcidiol is shown.
While not wishing to be bound by any theory or hypothesis, the inventors contemplate that the compounds according to the inventive subject matter increase serum concentration of calcitriol in a bi-modal manner. During the first 60 minutes, a moderate increase is observed in the case of subjects with low initial level of calcitriol (<30 pg/ml), but not in subjects with initial level >30 pg/ml. […]

The test system of a further data set is calcidiol. Put plainly: Serum calcidiol after single oral dose in human volunteers. Conditions: single oral dosage of 552 mg, five subjects, 30-120 minutes after administration. On the procedure:
as §1

For data set [1], the system named is serum calcium, serum phosphate, parathyroid hormone, calcitonin. Description: Serum calcium, phosphate, parathyroid hormone and calcitonin upon administration. As to conditions: about 550 mg; data not shown.
A short description of data set [2]: Intact Ca-Fructoborate in serum of orally treated fasted mice by LC-MS. As to conditions: oral gavage 600 mcg/mouse; for Intact Ca-fructoborate in serum: fasted mice. On the procedure:
Using LC-MS, Ca-Fructoborate was detected and measured from serum samples at concentrations as low as 0.2 ppm and higher. This method was used to analyze the presence and amount of Ca-Fructoborate in serum collected from mice treated orally (gavage) with Ca-Fructoborate in liquid at dose 600 mcg/mouse for 30 and 60 minutes.
Detection of intact Ca-Fructoborate in sera collected from fasted mice treated orally with the compound for 30 or 60 minutes. Collected sera were diluted in running buffer and filtered through 0.45 PVDF filter. This solution was analyzed by LCMS for Ca-Fructoborate as the fructoborate anion.

As for calcium fructoborate, the “modulation of calcitriol between times 0-90 minutes” value in the data set on blood calcitriol (single oral 552 mg, 0-90 minutes) is “decrease”. Further, in the data set with blood calcitriol (single oral 552 mg, 90-120 minutes), the “modulation of calcitriol between times 90-120 minutes” value is given as “increase”. In addition, the calcitriol serum concentration entry in the data set with blood calcitriol (single oral dosage of 552 mg, five subjects, 30-120 minutes after administration) is “significantly and acutely affected”. In addition, the calcidiol concentration result in the data set with calcidiol is “remained unaffected”. In data set [1], the “change of serum calcium concentration” value is recorded as 5-15%, the “change of serum concentration of calcitonin” value is recorded as 10-30%, the “change of serum concentration of parathyroid hormone” value is 10-30% and the “change of serum phosphate concentration” value is given as 5-15%. Also, the “Intact Ca-fructoborate in serum” value in data set [2] (30 minutes) is 449 µg/mL. For the same substance, in data set [2] (60 minutes), the “Intact Ca-fructoborate in serum” value stood at 556 µg/mL. In data set [2] (mice (20 g by average)), the “bioavailability of the compound” value was 556 mcg/ml of serum. Besides, in data set [2] (mice, 30 and 60 minutes), the “delivery from intestine to bloodstream” value was “in intact form and in time-dependent manner”.
